According to publication PMC5015106 (Scientific Reports, 2016):
Numbered stars: 1 amine (or outer) side, 2 acyl side, 3 side chain; on linkers, the order of the positions; unused ones are H or OH. Bridge positions count the residues as written; N and C are the ends. Square brackets hold non-standard residues; d marks the D form. Peptide text beside a SMILES is read from it. hTyr = N[CH](CCc1ccc(O)cc1)C(=O)O; NMeA = CN[CH](C)C(=O)O; CO = O=C([*:1])[*:2]

Experiments:
Format in all cases: biochemical
CPN = target: T1, CPN (Homo sapiens, UniProt P15169); test: Protease/carboxypeptidase panel: CPN; details: read-out: IC50 CPN
T1 sequence (P15169 21-458): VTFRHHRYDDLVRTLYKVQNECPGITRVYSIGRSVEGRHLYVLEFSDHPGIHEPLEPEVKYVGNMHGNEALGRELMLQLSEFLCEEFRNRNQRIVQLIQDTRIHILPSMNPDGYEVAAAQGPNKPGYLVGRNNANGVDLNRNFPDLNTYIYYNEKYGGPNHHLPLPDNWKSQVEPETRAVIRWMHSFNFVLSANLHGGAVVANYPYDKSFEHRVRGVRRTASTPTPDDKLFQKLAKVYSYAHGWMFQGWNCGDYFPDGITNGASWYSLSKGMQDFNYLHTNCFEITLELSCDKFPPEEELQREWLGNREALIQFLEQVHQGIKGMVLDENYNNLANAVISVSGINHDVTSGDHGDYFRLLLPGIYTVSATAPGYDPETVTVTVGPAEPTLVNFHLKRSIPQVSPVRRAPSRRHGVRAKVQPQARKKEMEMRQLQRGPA
T1 sequence (P22792 22-545 partner): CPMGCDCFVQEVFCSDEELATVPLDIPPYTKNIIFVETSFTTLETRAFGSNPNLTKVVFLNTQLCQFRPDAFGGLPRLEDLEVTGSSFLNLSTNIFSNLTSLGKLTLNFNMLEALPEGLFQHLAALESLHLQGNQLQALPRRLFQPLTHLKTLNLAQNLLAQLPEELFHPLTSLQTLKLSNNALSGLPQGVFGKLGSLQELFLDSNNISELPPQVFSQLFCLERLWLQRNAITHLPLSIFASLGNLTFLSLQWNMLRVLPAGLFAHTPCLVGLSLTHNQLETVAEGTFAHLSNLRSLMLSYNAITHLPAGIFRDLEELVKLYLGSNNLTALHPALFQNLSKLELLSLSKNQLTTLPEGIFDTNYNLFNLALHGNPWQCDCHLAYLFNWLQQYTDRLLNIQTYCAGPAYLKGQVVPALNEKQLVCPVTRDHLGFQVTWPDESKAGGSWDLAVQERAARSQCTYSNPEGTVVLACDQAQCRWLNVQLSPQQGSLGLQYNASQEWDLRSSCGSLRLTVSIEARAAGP
Source text: Supplement srep32958-s1.docx, table 1: Table S1: Activities of Anabaenopeptins against a panel of proteases/carboxypeptidases. | column: CPN

FIIa = FIIa (Homo sapiens, UniProt P00734); test: Protease/carboxypeptidase panel: FIIa; details: read-out: Ki FIIa
Source text: Supplement srep32958-s1.docx, table 1: Table S1: Activities of Anabaenopeptins against a panel of proteases/carboxypeptidases. | column: FIIa

FVIIa = target: T2, FVIIa (Homo sapiens, UniProt P08709); test: Protease/carboxypeptidase panel: FVIIa; details: read-out: Inh.@100µM in % FVIIa
T2 sequence (P08709 213-466 limits assumed): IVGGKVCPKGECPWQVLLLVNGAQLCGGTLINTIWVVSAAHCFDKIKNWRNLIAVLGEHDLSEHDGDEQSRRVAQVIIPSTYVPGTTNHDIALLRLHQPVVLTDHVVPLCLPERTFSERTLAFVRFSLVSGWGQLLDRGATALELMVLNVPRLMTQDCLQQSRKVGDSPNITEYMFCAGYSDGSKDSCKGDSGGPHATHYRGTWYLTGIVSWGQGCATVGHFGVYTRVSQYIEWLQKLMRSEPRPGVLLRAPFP
T2 sequence (P08709 61-212 partner limits assumed): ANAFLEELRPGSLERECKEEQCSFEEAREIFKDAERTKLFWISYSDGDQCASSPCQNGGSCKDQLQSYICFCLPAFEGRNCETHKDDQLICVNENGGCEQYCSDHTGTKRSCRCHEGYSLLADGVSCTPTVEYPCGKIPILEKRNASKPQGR
Source text: Supplement srep32958-s1.docx, table 1: Table S1: Activities of Anabaenopeptins against a panel of proteases/carboxypeptidases. | column: FVIIa

FXa = FXa (Homo sapiens, UniProt P00742); test: Protease/carboxypeptidase panel: FXa; details: 100 µM; read-out: Inh.@100µM in % FXa
FXa, sequence (P00742 235-488 limits assumed): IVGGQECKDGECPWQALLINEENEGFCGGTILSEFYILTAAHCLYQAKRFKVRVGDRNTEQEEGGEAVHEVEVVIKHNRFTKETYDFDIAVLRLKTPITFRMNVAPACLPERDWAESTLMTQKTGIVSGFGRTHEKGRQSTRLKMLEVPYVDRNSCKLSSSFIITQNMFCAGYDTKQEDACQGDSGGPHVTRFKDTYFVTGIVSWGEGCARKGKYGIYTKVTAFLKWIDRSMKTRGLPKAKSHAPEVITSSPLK
FXa, sequence (P00742 41-179 partner limits assumed): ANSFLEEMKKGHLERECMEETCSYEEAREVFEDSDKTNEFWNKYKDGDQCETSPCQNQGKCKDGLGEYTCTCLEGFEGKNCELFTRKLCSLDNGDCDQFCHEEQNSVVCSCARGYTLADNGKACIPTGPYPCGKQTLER
Source text: Supplement srep32958-s1.docx, table 1: Table S1: Activities of Anabaenopeptins against a panel of proteases/carboxypeptidases. | column: FXa

CPA = target: T3, CPA (Homo sapiens, UniProt P15085); test: Protease/carboxypeptidase panel: CPA
T3 sequence (P15085 111-419): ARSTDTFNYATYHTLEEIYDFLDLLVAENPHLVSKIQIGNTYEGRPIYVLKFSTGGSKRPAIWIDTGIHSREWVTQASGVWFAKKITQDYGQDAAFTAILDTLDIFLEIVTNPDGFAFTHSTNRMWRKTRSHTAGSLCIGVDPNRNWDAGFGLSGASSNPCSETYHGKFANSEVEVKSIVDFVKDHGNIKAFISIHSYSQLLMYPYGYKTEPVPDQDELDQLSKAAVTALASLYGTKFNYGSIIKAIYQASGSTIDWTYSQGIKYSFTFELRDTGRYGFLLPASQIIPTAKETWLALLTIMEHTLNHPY
Source text: Supplement srep32958-s1.docx, table 1: Table S1: Activities of Anabaenopeptins against a panel of proteases/carboxypeptidases. | column: CPA

CC(C)[C@@H]1NC(=O)[C@H](NC(=O)N[C@@H](CCCNC(=N)N)C(=O)O)CCCCNC(=O)[C@H](Cc2ccccc2)NC(=O)[C@H](C)N(C)C(=O)[C@H](CCc2ccc(O)cc2)NC1=O [Compound 1, Anabaenopeptin B] ({Arg-CO}-[dK]V[hTyr][NMeA]F; lactam 1-C) was tested, and the IC50 (CPN) was 5.4 µM, the Ki (FIIa) was 1.6 µM and the inhibition at 100 µM (FVIIa) was 35%. The inhibition at 100 µM (FXa) was 22% and the IC50 (CPA) was 3.9 µM.

With CC(C)C1NC(=O)C(NC(=O)NC(CCCCN)C(=O)O)CCCCNC(=O)C(Cc2ccccc2)NC(=O)C(C)N(C)C(=O)C(CCc2ccc(O)cc2)NC1=O (stereo not shown) [Compound 2, Anabaenopeptin C] ({Lys-CO}-KV[hTyr][NMeA]F; lactam 1-C; configuration not given here) the IC50 (CPN) was 5.7 µM, the Ki (FIIa) was 6 µM and the inhibition at 100 µM (FVIIa) was 36%. For the same compound, the inhibition at 100 µM (FXa) was 42% and the inhibition at 100 µM (CPA; 100 µM, read-out: Inh.@100µM in % CPA) was 31%.
